Test results published in ChEMBL document CHEMBL4699598, “Discovery of Novel Substituted N-(4-Amino-2-chlorophenyl)-5-chloro-2-hydroxybenzamide Analogues as Potent Human Adenovirus Inhibitors” (J Med Chem, 2020).
pIC50: −log10 of the molar value. Calls of active or inactive are those of the source. The rule behind the calls is not given here.

What was measured:
[1] = test system: Human betaherpesvirus 5; test: Antiviral activity against human cytomegalovirus infected in HFF cells assessed as inhibition of viral replication by measuring number of viral DNA copies at 12.7 uM incubated for 72 hrs by RT-PCR analysis (reference value: 100 +/- 25.56 %); type: functional; design: scale not given: the % may be the effect or the level left
[2] = Selectivity index, ratio of CC50 for cytotoxicity against human A549 cells assessed as reduction in cell viability incubated for 48 hrs by alamarBlue assay to IC50 for antiviral activity against Human adenovirus 5 infected in 293beta5 cells assessed as inhibition of plaque formation incubated for 7 days by GFP reporter gene assay; type: toxicity, cell-based; conditions: read-out: Ratio CC50/IC50
[3] = test system: Human adenovirus 5; test: Antiviral activity against wild-type Human adenovirus 5 infected in human A549 cells assessed as inhibition of virus entry incubated for 48 hrs by fluorescence assay; type: functional, organism-based; conditions: Human mastadenovirus C, A549, 48 h
[4] = test system: Human adenovirus 5; test: Antiviral activity against wild-type Human adenovirus 5 infected in human A549 cells assessed as inhibition of viral entry by measuring nuclear associated viral genome level at 10 fold IC50 incubated for 45 mins by RT-PCR analysis (reference value: 100 +/- 1.07 %); type: functional; design: scale not given: the % may be the effect or the level left; conditions: 0.75 h
[5] = test system: Human adenovirus 5; test: Antiviral activity against wild-type Human adenovirus 5 infected in human A549 cells assessed as inhibition of viral DNA replication by measuring number of viral DNA copies at 12.7 uM after 24 hrs by RT-qPCR analysis (reference value: 100 +/- 0.16 %); type: functional; design: scale not given: the % may be the effect or the level left
[6] = test system: Human adenovirus 5; test: Antiviral activity against Human adenovirus 5 infected in 293beta5 cells assessed as inhibition of plaque formation at 10 uM incubated for 7 days by GFP reporter gene assay relative to control; type: functional; conditions: Human mastadenovirus C, HEK293, 168 h, time 7 day
[7] = test system: Human adenovirus 5; test: Antiviral activity against GFP-fused Human adenovirus 5 infected in 293beta5 cells assessed as inhibition of plaque formation incubated for 7 days by GFP reporter gene assay; type: functional, organism-based; conditions: Human mastadenovirus C, HEK293, 168 h
[8] = Cytotoxicity against human A549 cells assessed as reduction in cell viability incubated for 48 hrs by alamarBlue assay; type: cell-based
[9] = test system: Human adenovirus 5; test: Antiviral activity against WT-Human adenovirus 5 infected in A549 cells assessed as fold reduction in virus yield at 10 fold of IC50 after 48 hrs endpoint dilution method; type: functional
[10] = test system: Human adenovirus 5; test: Antiviral activity against Human adenovirus 5 infected in 293beta5 cells assessed as inhibition of virus infection at 10 fold IC50 measured after 5 mins by GFP reporter gene assay relative to control; type: functional, HEK293
[11] = test system: Human adenovirus 5; test: Antiviral activity against Human adenovirus 5 infected in 293beta5 cells assessed as inhibition of virus infection at 10 times IC50 measured after 10 to 20 mins by GFP reporter gene assay relative to control; type: functional, organism-based; conditions: HEK293, time min 10-20
[12] = test system: Human adenovirus 5; test: Antiviral activity against wild-type Human adenovirus 5 infected in human A549 cells assessed as inhibition of viral DNA replication by measuring number of viral DNA copies at 9.3 uM after 24 hrs by RT-qPCR analysis (reference value: 100 +/- 0.16 %); type: functional; design: scale not given: the % may be the effect or the level left
[13] = test system: Cytomegalovirus; test: Antiviral activity against human cytomegalovirus infected in HFF cells assessed as decrease in number of viral DNA copies at 9.3 uM incubated for 72 hrs by RT-PCR analysis (reference value: 100 +/- 25.56 %); type: functional; design: scale not given: the % may be the effect or the level left
[14] = test system: Human betaherpesvirus 5; test: Antiviral activity against human cytomegalovirus infected in HFF cells assessed as inhibition of viral replication by measuring number of viral DNA copies at 7.8 uM incubated for 72 hrs by RT-PCR analysis (reference value: 100 +/- 25.56 %); type: functional; design: scale not given: the % may be the effect or the level left
[15] = test system: Human adenovirus 5; test: Antiviral activity against Human adenovirus 5 infected in 293beta5 cells assessed as inhibition of virus infection at 10 fold of IC50 measured at 0 min by GFP reporter gene assay relative to control; type: functional, HEK293
[16] = test system: Human adenovirus 5; test: Antiviral activity against wild-type Human adenovirus 5 infected in human A549 cells assessed as inhibition of viral DNA replication by measuring number of viral DNA copies at 7.8 uM after 24 hrs by RT-qPCR analysis (reference value: 100 +/- 0.16 %); type: functional; design: scale not given: the % may be the effect or the level left
[17] = test system: Human betaherpesvirus 5; test: Antiviral activity against human cytomegalovirus infected in HFF cells assessed as inhibition of viral replication by measuring number of viral DNA copies at 12 uM incubated for 72 hrs by RT-PCR analysis (reference value: 100 +/- 25.56 %); type: functional; design: scale not given: the % may be the effect or the level left
[18] = test system: Human adenovirus 5; test: Antiviral activity against wild-type Human adenovirus 5 infected in human A549 cells assessed as inhibition of viral DNA replication by measuring number of viral DNA copies at 12 uM after 24 hrs by RT-qPCR analysis (reference value: 100 +/- 0.16 %); type: functional; design: scale not given: the % may be the effect or the level left
[19] = test system: Human adenovirus 5; test: Antiviral activity against Human adenovirus 5 infected in 293beta5 cells assessed as inhibition of virus infection at 10 fold IC50 measured after 60 mins by GFP reporter gene assay relative to control; type: functional, HEK293; conditions: 1 h
[20] = test system: Human adenovirus 5; test: Antiviral activity against wild-type Human adenovirus 5 infected in human A549 cells assessed as inhibition of viral DNA replication by measuring number of viral DNA copies at 5 uM after 24 hrs by RT-qPCR analysis (reference value: 100 +/- 0.16 %); type: functional; design: scale not given: the % may be the effect or the level left
[21] = test system: Human betaherpesvirus 5; test: Antiviral activity against human cytomegalovirus infected in HFF cells assessed as inhibition of viral replication by measuring number of DNA copies at 5 uM incubated for 72 hrs by RT-PCR analysis (reference value: 100 +/- 25.56 %); type: functional; design: scale not given: the % may be the effect or the level left
[22] = test system: Human adenovirus 5; test: Antiviral activity against wild-type Human adenovirus 5 infected in human A549 cells assessed as inhibition of viral DNA replication by measuring number of viral DNA copies at 9 uM after 24 hrs by RT-qPCR analysis (reference value: 100 +/- 0.16 %); type: functional; design: scale not given: the % may be the effect or the level left
[23] = test system: Human betaherpesvirus 5; test: Antiviral activity against human cytomegalovirus infected in HFF cells assessed as inhibition of viral replication by measuring number of viral DNA copies at 9 uM incubated for 72 hrs by RT-PCR analysis (reference value: 100 +/- 25.56 %); type: functional; design: scale not given: the % may be the effect or the level left
[24] = test system: Human adenovirus 5; test: Antiviral activity against wild-type Human adenovirus 5 infected in human A549 cells assessed as inhibition of viral DNA replication by measuring number of viral DNA copies at 2.7 uM after 24 hrs by RT-qPCR analysis (reference value: 100 +/- 0.16 %); type: functional; design: scale not given: the % may be the effect or the level left
[25] = test system: Human betaherpesvirus 5; test: Antiviral activity against human cytomegalovirus infected in HFF cells assessed as inhibition of viral replication by measuring number of viral DNA copies at 2.7 uM incubated for 72 hrs by RT-PCR analysis (reference value: 100 +/- 25.56 %); type: functional; design: scale not given: the % may be the effect or the level left
[26] = Toxicity against cyclophosphamide-immunosuppressed golden syrian hamster assessed as loss of body weight at 1 mg/kg, administered for 14 days; type: organism-based, Mesocricetus auratus; conditions: in vivo, 336 h, time 14 day
[27] = test system: Human betaherpesvirus 5; test: Antiviral activity against human cytomegalovirus infected in HFF cells assessed as inhibition of viral replication by measuring number of viral DNA copies at […] incubated for 72 hrs by RT-PCR analysis (reference value: 100 +/- 25.56 %); type: functional; design: scale not given: the % may be the effect or the level left; conditions: dose 11.1 µM
[28] = test system: Human adenovirus 5; test: Antiviral activity against wild-type Human adenovirus 5 infected in human A549 cells assessed as inhibition of viral DNA replication by measuring number of viral DNA copies at […] after 24 hrs by RT-qPCR analysis (reference value: 100 +/- 0.16 %); type: functional; design: scale not given: the % may be the effect or the level left; conditions: dose 11.1 µM

Compound	selectivity ratio at 48 h [2]	pIC50 [3]	Activity [4] [%]	inhibition at 10 µM [6] [%]	pIC50 [7]	CC50 at 48 h [8] [µM]	fold change (FC) [9]	other results
CC(C)(Cc1ccccc1)ON(c1ccc(NC(=O)c2cc(Cl)ccc2O)c(Cl)c1)C(C)(C)Cc1ccccc1	130	4.47	95.87	100	5.90	165	21.5	Activity [1]: 9.15%; Activity [5]: 2.37%; inhibition (INH) [10]: <50%
CC(C)(C)OC(=O)N1CCC(CNc2ccc(NC(=O)c3cc(Cl)ccc3O)c(Cl)c2)CC1	102	> 5.50	59.54		6.03	92	232	inhibition [11]: inactive; Activity [12]: 2.49%; Activity [13]: 15.58%
O=C(Nc1ccc(NCc2ccc(O)nc2)cc1Cl)c1cc(Cl)ccc1O	126	< 4.30	13.6	100	6.11	98.5	26.6	Activity [14]: 18.18%; inhibition (INH) [15]: <50%; Activity [16]: 53.62%
CC(CCO)Nc1ccc(NC(=O)c2cc(Cl)ccc2O)c(Cl)c1 (stereo not given)	167	4.51	98.96		5.92	200	9.3	Activity [17]: 22.47%; inhibition (INH) [15]: <50%; Activity [18]: 80.94%
O=C(Nc1ccc(NC2CCCC2)cc1Cl)c1cc(Cl)ccc1O	186		98.84	100	6.30	92.9	17.1	inhibition (INH) [19]: >=50%; Activity [20]: 14.42%; Activity [21]: 100%
CC(C)(CCO)Nc1ccc(NC(=O)c2cc(Cl)ccc2O)c(Cl)c1	188		99.97		6.05	170	15.7	Activity [22]: 65.04%; inhibition (INH) [15]: <50%; Activity [23]: 14.35%
CC1(Nc2ccc(NC(=O)c3cc(Cl)ccc3O)c(Cl)c2)CCCC1	581	4.82	53.7	100	6.57	157	52.6	Activity [24]: 20.21%; Activity [25]: 91.25%; inhibition (INH) [10]: <50%
O=C(Nc1ccc([N+](=O)[O-])cc1Cl)c1cc(Cl)ccc1O [NICLOSAMIDE]				100	6.22			inhibition (INH) [19]: >=50%; Activity [26]: Non-Toxic; Activity [21]: 1.7%
O=C(Nc1ccc(NCc2ccc(O)cc2)cc1Cl)c1cc(Cl)ccc1O	104	4.60	11.56		5.95	116	17.4	inhibition (INH) [19]: >=50%; Activity [27]: 15.71%; Activity [28]: 83.72%
O=C(Nc1ccc(NCC2CC2)cc1Cl)c1cc(Cl)ccc1O	10.4			100	5.86	14.4		
O=C(Nc1ccc(NCc2cccc(Br)n2)cc1Cl)c1cc(Cl)ccc1O	40.8			100	5.65	92.3		
CN(C)c1ccc(NC(=O)c2cc(Cl)ccc2O)c(Cl)c1	44.3			100	5.72	85.1		
CCCCCCC(C)Nc1ccc(NC(=O)c2cc(Cl)ccc2O)c(Cl)c1 (stereo not given)	73.4			100	6.49	23.5		
